# pIC50: −log10 of the molar value.
# Target: 15-PGDH/HPGD (Homo sapiens (Human), UniProt P15428)
# Assay: hPGDH inhibitor screening biochemical assay
# Conditions: 10 nM 15-PGDH/HPGD, 15 μM PGE2, 0.25 mM NAD; read-out: hPGDH: Average IC50
# Outline: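 10 nM recombinant 15-PGDH was preincubated with compound (10-point) for 10 min at 37° C. in 50 mM Tris-HCl pH 7.5, 0.01% Tween 20. Then 15 μM PGE2 and 0.25 mM NAD+ were added for 10 min at rt. NADH fluorescence (ex/em 340/485 nm) gave % inhibition versus 1% DMSO and a four-parameter IC50.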
# 15-PGDH/HPGD, sequence (P15428 whole entry): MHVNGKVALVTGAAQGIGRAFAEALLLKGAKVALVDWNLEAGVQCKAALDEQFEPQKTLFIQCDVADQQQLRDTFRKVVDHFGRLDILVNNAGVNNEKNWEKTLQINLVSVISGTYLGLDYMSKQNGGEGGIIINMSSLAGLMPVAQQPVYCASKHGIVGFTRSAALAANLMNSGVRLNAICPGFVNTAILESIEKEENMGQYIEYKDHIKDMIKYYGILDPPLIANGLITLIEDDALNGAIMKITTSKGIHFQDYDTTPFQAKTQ
row,Structure (SMILES),pIC50
1,"O=C(c1cnc2c(ccn2-c2cncc(-c3noc(=O)[nH]3)c2)c1)N1CCC(F)(F)CC1 [A-252, 3-(5-(5-(4,4-difluoropiperidine-1-carbonyl)-1H-pyrrolo[2,3-b]pyridin-1-yl)pyridin-3-yl)-1,2,4-oxadiazol-5(4H)-one]",> 7.00
2,O=C(c1cnc2c(ccn2-c2ccc(-c3ncn[nH]3)nc2)c1)N1CCC(F)(F)CC1 [A-253],> 7.00
3,"O=C(c1cnc2c(ccn2-c2ccc(-c3noc(=O)[nH]3)nc2)c1)N1CCC(F)(F)CC1 [A-254, 3-(5-(5-(4,4-difluoropiperidine-1-carbonyl)-1H-pyrrolo[2,3-b]pyridin-1-yl)pyridin-2-yl)-1,2,4-oxadiazol-5(4H)-one]",> 7.00
4,CC1(C)NC(=O)N(c2ccc(-n3ccc4cc(C(=O)N5CCC(F)(F)CC5)cnc43)cn2)C1=O [A-255],> 7.00
5,O=C(Nc1cncc(-n2ccc3cc(C(=O)N4CCC(F)(F)CC4)cnc32)c1)c1ccno1 [A-256],> 7.00
6,"O=C(Nc1ccno1)c1cncc(-n2ccc3cc(C(=O)N4CCC(F)(F)CC4)cnc32)c1 [A-257, 5-(5-(4,4-difluoropiperidine-1-carbonyl)-1H-pyrrolo[2,3-b]pyridin-1-yl)-N-(isoxazol-5-yl)nicotinamide]",> 7.00
7,O=C(Nc1ccno1)c1ccc(-n2ccc3cc(C(=O)N4CCC(F)(F)CC4)cnc32)cn1 [A-258],> 7.00
8,"N#Cc1ccc(-n2ccc3nc(C(=O)N4CCC(F)CC4)ccc32)cc1 [A-259, 4-(5-(4-fluoropiperidine-1-carbonyl)-1H-pyrrolo[3,2-b]pyridin-1-yl)benzonitrile]",≤ 6.00
9,"N#Cc1ccc(-n2ccc3cc(C(=O)N4CCC(F)CC4)ncc32)cc1 [A-260, 4-(5-(4-fluoropiperidine-1-carbonyl)-1H-pyrrolo[2,3-c]pyridin-1-yl)benzonitrile]",≤ 6.00
10,"O=C(NCCO)c1cccc(-n2ccc3cc(C(=O)N4CCC(F)(F)CC4)cnc32)c1 [A-263, 3-(5-(4,4-difluoropiperidine-1-carbonyl)-1H-pyrrolo[2,3-b]pyridin-1-yl)-N-(2-hydroxyethyl)benzamide]",> 7.00
11,O=C(O)c1ccc(-n2ccc3cc(C(=O)N4CCC(F)(F)CC4)cnc32)nc1 [A-264],> 7.00
12,"Cc1nc(-c2cncc(-n3ccc4cc(C(=O)N5CCC(F)(F)CC5)cnc43)c2)no1 [A-265, (4,4-difluoropiperidin-1-yl)(1-(5-(5-methyl-1,2,4-oxadiazol-3-yl)pyridin-3-yl)-1H-pyrrolo[2,3-b]pyridin-5-yl)methanone]",> 7.00
13,O=C(c1cnc2c(ccn2-c2cncc(N3CCOC3=O)c2)c1)N1CCC(F)(F)CC1 [A-267],> 7.00
14,"CCNC(=O)c1ccc(-n2ccc3cc(C(=O)N4CCC(F)(F)CC4)cnc32)nc1 [A-268, 6-(5-(4,4-difluoropiperidine-1-carbonyl)-1H-pyrrolo[2,3-b]pyridin-1-yl)-N-ethylnicotinamide]",> 7.00
15,NC[C@@H]1CN(c2ccc(-n3ccc4cc(C(=O)N5CCC(F)(F)CC5)cnc43)cn2)C(=O)O1 [A-269],> 7.00
16,NC[C@@H]1CN(c2cncc(-n3ccc4cc(C(=O)N5CCC(F)(F)CC5)cnc43)c2)C(=O)O1 [A-270],> 7.00
17,"CS(=O)(=O)NCCNC(=O)c1cccc(-n2ccc3cc(C(=O)N4CCC(F)(F)CC4)cnc32)c1 [A-271, 3-(5-(4,4-difluoropiperidine-1-carbonyl)-1H-pyrrolo[2,3-b]pyridin-1-yl)-N-(2-(methylsulfonamido)ethyl)benzamide]",> 7.00
18,O=C(NC1CCS(=O)(=O)CC1)c1cc(Cl)cc(-n2ccc3cc(C(=O)N4CCC(F)(F)CC4)cnc32)c1 [A-272],> 7.00
19,NC(=O)c1cncc(-n2cc(Cl)c3cc(C(=O)N4CCC(F)(F)CC4)cnc32)c1 [A-273],> 7.00
20,"O=C(c1cnc2c(ccn2-c2cncc(NS(=O)(=O)C3CC3)c2)c1)N1CCC(F)(F)CC1 [A-274, N-(5-(5-(4,4-difluoropiperidine-1-carbonyl)-1H-pyrrolo[2,3-b]pyridin-1-yl)pyridin-3-yl)cyclopropanesulfonamide]",> 7.00
21,"CCOC(=O)Nc1cncc(-n2ccc3cc(C(=O)N4CCC(F)(F)CC4)cnc32)c1 [A-275, ethyl (5-(5-(4,4-difluoropiperidine-1-carbonyl)-1H-pyrrolo[2,3-b]pyridin-1-yl)pyridin-3-yl)carbamate]",> 7.00
22,"NC(=O)[C@@H]1CCCN1C(=O)c1cccc(-n2ccc3cc(C(=O)N4CCC(F)(F)CC4)cnc32)c1 [A-276, (S)-1-(3-(5-(4,4-difluoropiperidine-1-carbonyl)-1H-pyrrolo[2,3-b]pyridin-1-yl)benzoyl)pyrrolidine-2-carboxamide]",> 7.00
23,"CC(C)(C(N)=O)c1cncc(-n2ccc3cc(C(=O)N4CCC(F)(F)CC4)cnc32)c1 [A-277, 2-(5-(5-(4,4-difluoropiperidine-1-carbonyl)-1H-pyrrolo[2,3-b]pyridin-1-yl)pyridin-3-yl)-2-methylpropanamide]",> 7.00

row,Structure (SMILES),pIC50
1,NS(=O)(=O)c1cccc(-n2ccc3cc(C(=O)N4CCC(F)(F)CC4)cnc32)c1 [A-279],> 7.00
2,NS(=O)(=O)c1ccc(-n2ccc3cc(C(=O)N4CCC(F)(F)CC4)cnc32)cc1 [A-280],> 7.00
3,"O=C(c1cnc2c(ccn2-c2cccc(C(=O)N3CCS(=O)(=O)C3)c2)c1)N1CCC(F)(F)CC1 [A-281, (4,4-difluoropiperidin-1-yl)(1-(3-(1,1-dioxidothiazolidine-3-carbonyl)phenyl)-1H-pyrrolo[2,3-b]pyridin-5-yl)methanone]",> 7.00
4,"O=C(Nc1cc(C2CC2)[nH]n1)c1cccc(-n2ccc3cc(C(=O)N4CCC(F)(F)CC4)cnc32)c1 [A-282, N-(5-cyclopropyl-1H-pyrazol-3-yl)-3-(5-(4,4-difluoropiperidine-1-carbonyl)-1H-pyrrolo[2,3-b]pyridin-1-yl)benzamide]",> 7.00
5,"O=C(Nc1ccn(C2CC2)n1)c1cccc(-n2ccc3cc(C(=O)N4CCC(F)(F)CC4)cnc32)c1 [A-283, N-(1-cyclopropyl-1H-pyrazol-3-yl)-3-(5-(4,4-difluoropiperidine-1-carbonyl)-1H-pyrrolo[2,3-b]pyridin-1-yl)benzamide]",> 7.00
6,"O=C(Nc1ccn(C2CC2)n1)c1cncc(-n2ccc3cc(C(=O)N4CCC(F)(F)CC4)cnc32)c1 [A-284, N-(1-cyclopropyl-1H-pyrazol-3-yl)-5-(5-(4,4-difluoropiperidine-1-carbonyl)-1H-pyrrolo[2,3-b]pyridin-1-yl)nicotinamide]",> 7.00
7,"O=C(Nc1cc(C2CC2)[nH]n1)c1cncc(-n2ccc3cc(C(=O)N4CCC(F)(F)CC4)cnc32)c1 [A-285, N-(5-cyclopropyl-1H-pyrazol-3-yl)-5-(5-(4,4-difluoropiperidine-1-carbonyl)-1H-pyrrolo[2,3-b]pyridin-1-yl)nicotinamide]",> 7.00
8,N#Cc1cc(-n2ccc3cc(C(=O)N4CCC(F)(F)CC4)cnc32)cnc1O [A-286],> 7.00
9,"O=C(O)c1cccc(-n2ccc3cc(C(=O)N4CCC(F)(F)CC4)cnc32)c1 [A-287, 3-(5-(4,4-difluoropiperidine-1-carbonyl)-1H-pyrrolo[2,3-b]pyridin-1-yl)benzoic acid]",> 7.00
10,O=C(c1cnc2c(ccn2-c2cc(Cl)cc(C(=O)N3CCS(=O)(=O)CC3)c2)c1)N1CCC(F)(F)CC1 [A-288],> 7.00
11,"CC(C)(C#N)c1cncc(-n2ccc3cc(C(=O)N4CCC(F)(F)CC4)cnc32)c1 [A-289, 2-(5-(5-(4,4-difluoropiperidine-1-carbonyl)-1H-pyrrolo[2,3-b]pyridin-1-yl)pyridin-3-yl)-2-methylpropanenitrile]",> 7.00
12,"O=C(c1cnc2c(ccn2-c2ccc(-c3nn[nH]n3)cc2)c1)N1CCC(F)(F)CC1 [A-290, (1-(4-(2H-tetrazol-5-yl)phenyl)-1H-pyrrolo[2,3-b]pyridin-5-yl)(4,4-difluoropiperidin-1-yl)methanone]",> 7.00
13,"O=C(c1cnc2c(ccn2-c2cccc(-c3nn[nH]n3)c2)c1)N1CCC(F)(F)CC1 [A-291, (1-(3-(2H-tetrazol-5-yl)phenyl)-1H-pyrrolo[2,3-b]pyridin-5-yl)(4,4-difluoropiperidin-1-yl)methanone]",> 7.00
14,"O=C(c1cnc2c(ccn2-c2cncc(-c3nc[nH]n3)c2)c1)N1CCC(F)(F)CC1 [A-292, (1-(5-(1H-1,2,4-triazol-3-yl)pyridin-3-yl)-1H-pyrrolo[2,3-b]pyridin-5-yl)(4,4-difluoropiperidin-1-yl)methanone]",> 7.00
15,CC(C)(O)CNC(=O)c1cc(Cl)cc(-n2ccc3cc(C(=O)N4CCC(F)(F)CC4)cnc32)c1 [A-293],> 7.00
16,"O=C(c1cnc2c(ccn2-c2cccc(C(=O)N3CC[S+]([O-])C3)c2)c1)N1CCC(F)(F)CC1 (stereo not shown) [A-294, (4,4-difluoropiperidin-1-yl)(1-(3-(1-oxidothiazolidine-3-carbonyl)phenyl)-1H-pyrrolo[2,3-b]pyridin-5-yl)methanone]",> 7.00
17,O=C(c1cnc2c(c1)c(Cl)cn2-c1cnccn1)N1CCC(F)CC1 [A-295],> 7.00
18,"Cc1cncc(-n2cc(Cl)c3cc(C(=O)N4CCC(F)CC4)cnc32)n1 [A-296, (3-chloro-1-(6-methylpyrazin-2-yl)-1H-pyrrolo[2,3-b]pyridin-5-yl)(4-fluoropiperidin-1-yl)methanone]",> 7.00
19,O=C(c1cnc2c(ccn2-c2ccc3c(c2)OCO3)c1)N1CCC(F)CC1 [A-298],> 7.00
20,COc1ccc(-n2c(C)nc3cc(C(=O)N4CCC(F)CC4)ccc32)cc1 [A-303],> 7.00
21,COc1ccc(-n2ccc3cc(C(=O)N4CCC(F)CC4)ccc32)cc1 [A-304],> 7.00
22,"COc1ccc(-n2cc(C)c3cc(C(=O)N4CCC(F)CC4)ccc32)cc1 [A-305, (4-fluoropiperidin-1-yl)(1-(4-methoxyphenyl)-3-methyl-1H-indol-5-yl)methanone]",> 7.00
23,CCc1nc2cc(C(=O)N3CCC(F)CC3)ccc2n1-c1ccc(OC)cc1 [A-306],> 7.00
